Laboratory results taken from patent publication US20100069316A1, “TREATMENT FOR MULTIPLE MYELOMA” (Ares Trading S.A., priority 2006, published 2010).

Experiments:
Assay type in all cases: cell-based, human
XG3 myeloma cell line = test: Cell proliferation assay (tritiated thymidine incorporation), XG3; settings: Homo sapiens, XG3, alone or with fixed Velcade/Melphalan
Procedure: (§1) Myeloma cells were harvested in the exponential growth phase (at day 3 after culture passage when the cell concentration is around 5×10^5 cells/ml). Cells were washed twice, cultured for 3 hours in RPMI1640 and 10% FCS, washed twice. This makes it possible to remove cell-bound growth factors (in particular recombinant IL-6). Then cells are plated in 96-well flat-bottomed microplates at various concentrations depending on their doubling time: • 5×10^3 cells/well in 100 μl for the cell lines: XG-1, XG-7 • 10^4 cells/well in […] for the cell lines: XG-2, XG-4, XG-6, XG-11, PRMI8226, L363 • 2×10^4 cells/well in 100 μl for the cell lines: XG-3, XG-12, XG-13, XG-14, XG-19, XG-20
(§2) The culture medium used were: • PRMI1640, 10% FCS and 0.5 ng/ml of IL-6 for XG-1, XG-2, XG-3, XG-4, XG-6, XG-7, XG-11, XG-12, XG-13, XG-19, XG-20 cells • X-VIVO20 and 0.5 ng/ml IL-6 for XG-14 cells • PRMI1640 and 10% FCS for RPMI8226 and L363 cells
(§3) The diluted compounds, DMSO or control culture medium were added in 100 μl at the start of the culture. Three culture wells were done for one compound dilution and the experiments were done twice (finally six culture wells for one compound dilution).
(§4) Cells were cultured for 4 days. Eight hours before the end of the culture, 0.5 μCi of tritiated thymidine were added in 50 μl of RPMI1640 and 10% FCS. Cells were then extracted with a cell collector and the thymidine incorporation was determined using a beta cell counter.
(§5) For each experiment, the mean tritiated thymidine incorporations (mean values determined on three culture wells) were plotted against the logarithmic concentrations of the compound. The curves were fitted with exponential regression, which was determined using the concentrations defining the inhibition response (usually 3-4 concentrations).
(§6) The concentrations yielding 50% and 90% inhibition of the proliferation of myeloma cells were determined with these regression curves.
(§7) The concentration yielding 10% (IC10) or 50% (IC50) inhibition of the myeloma cell lines were determined and the data are listed in Table 2.
(§8) Compound A was tested in combination with melphalan or Velcade. Increasing concentration of compound A (0, 0.01, 0.03, 0.12, 0.37, 1.1, 3.1, 10, 30 μM) were applied on 4 myeloma cell lines alone or in combination with Velcade or melphalan at concentration yielding around 10% or 50% inhibition.

XG7 myeloma cell line = test: Cell proliferation assay (tritiated thymidine incorporation), XG7; settings: Homo sapiens, XG7, alone or with fixed Velcade/Melphalan
Procedure: as §1, §2, §3, §4, §5, §6, §7, §8

XG-12 myeloma cell line = test: Cell cycle measurement (BrdU/PI, S phase), XG-12; settings: day 3 of culture
Procedure: (§9) The cell cycle distribution of the cell lines was assessed by flow cytometry analysis by propidium iodide (PI) and bromodeoxyuridine (BrdU) double-staining. Thirty minutes before stopping the culture, BrdU (10 μM) were added to the cultures and then the cells were collected by centrifugation, washed twice in phosphate buffer saline (PBS) and fixed in 70% ethanol for 20 minutes at room temperature. After two washes with PBS, cells were resuspended in 50 μL of 3N HCl, 0.5% Tween 20 and incubated 20 minutes at 20° C. to denature DNA. […] The fluorescence of FL1-H (BrdU) and FL2-A (PI) were analyzed on a FACScan flow cytometer using Cell Quest software (Becton Dickinson).
(§10) Two myeloma cell lines (XG-3 and XG-12) that are sensitive to compound A (1-(4-{4-[4-(4-chlorophenyl)-pyrimidin-2-ylamino]-benzoyl}-piperazin-1-yl)-ethanone) were selected for the study. To assess the effect of compound A on myeloma cell survival, the percentage apoptotic cells was determined using binding of annexin V to apoptotic cells. The effect of compound A on the cell cycle was assessed by evaluating the percentage of cells in the S phase of the cell cycle by incorporation of BrdU-FITC. Apoptosis, cell cycle and cell numeration were evaluated daily on a four day culture period on the cell lines using the IC10, IC50 and I90 respective doses of compound A.

[1] = tested on: CD138+ primary myeloma cells; test: Ex vivo survival of primary myeloma cells in bone marrow culture; settings: bone marrow cells of 10 myeloma patients, 5 days, 1, 3.3, 10 μM
Procedure: (§11) Bone marrow cells from 10 patients with multiple myeloma (5 patients at diagnosis and 5 relapsing patients) were harvested and mononuclear cells isolated by ficoll hypaque centrifugation.
(§12) At day 5, cell numbers were counted and the percentage and counts of myeloma cells were determined by FACS staining using an anti-CD138 monoclonal antibody. This made it possible to assay for viable myeloma cells as CD138 is lost on pre-apoptotic myeloma cells (Jourdan, M. et al. (1998) Br. J. Haematol., 100, 637-648). The percentage and count of CD34 hematopoietic progenitors was also determined with an anti-CD34 monoclonal antibody and FACS labeling.
(§13) Bone marrow mononuclear cells from 5 patients with newly diagnosed multiple myeloma or from 5 patients with relapsing multiple myeloma were cultured for 5 days with culture medium and 10% fetal calf serum. […] At the end of culture, cells were counted. Viable myeloma cells were determined using FACS labeling with anti-CD138 monoclonal antibody, as well as viable hematopoietic stem cells using an anti-CD34 monoclonal antibody. Results are expressed as the percentage of viable myeloma cells, non-myeloma cells, or CD34 cells compared to the control culture group without inhibitor.

[2] = tested on: non-myeloma bone marrow cells; test: Ex vivo survival of non-myeloma bone marrow cells; settings: bone marrow cells of 10 myeloma patients, 5 days, 1, 3.3, 10 μM
Procedure: as §11, §12, §13

4 myeloma cell lines = test: Combination study of compound A with Velcade or melphalan, proliferation; settings: XG3, XG12, XG7, L363
Procedure: as §1, §2, §3
Cells were cultured for 4 days. […] Cells were then extracted with a cell collector and the thymidine incorporation was determined using a beta cell counter. […]

[3] = tested on: myeloma cell lines (XG-3 and XG-12); test: Cells in S phase (BrdU) in myeloma cell lines; settings: XG-3 and XG-12, IC10, IC50, IC90 doses
Procedure: as §9, §10

[4] = concentration of compound A yielding 50% inhibition of proliferation, read-out: IC50
[5] = concentration of compound A yielding 90% inhibition of proliferation

CC(=O)N1CCN(C(=O)c2ccc(Nc3nccc(-c4ccc(Cl)cc4)n3)cc2)CC1 [Compound A, 1-(4-{4-[4-(4-Chloro-phenyl)-pyrimidin-2-ylamino]-benzoyl}-piperazin-1-yl)-ethanone]
IC50 (XG3 myeloma cell line; [4]): 1.49 µM
IC90 (XG3 myeloma cell line; [5]): 6.35 µM
IC50 (XG7 myeloma cell line; [4]): 6.36 µM
IC90 (XG7 myeloma cell line; [5]): 9.33 µM
S phase (%) percentage of cells in the S phase (XG-12 myeloma cell line; XG-12, compound A at IC50 concentration): 37.3%
S phase (%) percentage of cells in the S phase (XG-12 myeloma cell line; XG-12, compound A at IC90 concentration): 6.8%
survival of primary myeloma cells [1]: inhibits the survival of primary myeloma cells
survival of other (non-myeloma) bone marrow cells [2]: without affecting the survival of other bone marrow cells
effect of combination with Melphalan on inhibition of myeloma cell proliferation (4 myeloma cell lines; Melphalan at IC10 or IC50): additive effect
effect of combination with Velcade on inhibition of myeloma cell proliferation (4 myeloma cell lines; Velcade at IC10 or IC50): additive effect
number of cells in the S phase of the cell cycle [3]: induced a decrease in the number of cell in the S phase
